{"source": "paper PMC10905719", "about": "“Accelerating Antimicrobial Peptide Discovery for WHO Priority Pathogens through Predictive and Interpretable Machine Learning Models” (ACS Omega, 2024)", "origin": "cited, not measured here", "key": {"[1]": {"system": "Erythrocyte", "from_the_text": "page 8: 2 VGALAGFLYWHFLRKGTKM NewAMP_S Hm-AMP10 VGK S. aureus ST 88 248.00 NewAMP_S hHK-18 TGKASQFFGLM-NH S. aureus ATCC 151.63 2 25923 NewAMP_S AH-18 LKKWTGKASQFFGLM-NH S. aureus ATCC 222.71 2 25923 NewAMP_S AH-28 LKKWTLKASQFFGLM-NH S. aureus ATCC 229.89 2 25923 NewAMP_S AH-38 LKKWLKKWTGKASQFFGLM- S. aureus ATCC 9.18 NH2 25923 NewAMP_S AH-48 LKKWLKKWTLKASQFFGLM- S. aureus ATCC 4.70 NH2 25923 Sub-set Name Sequence Erythrocyte MHC(µg/mL) (% hemolysis) NewAMP_HE HJH-18 KLLKHKLLVTLA Erythrocyte 382.72a NewAMP_HE HJH-28 KLLKHKLLVTLR Erythrocyte 382.72a NewAMP_HE HJH-38 KLLKRKLLVTLR Erythrocyte 382 ..."}, "[2]": {"system": "P. aeruginosa ATCC 10148", "settings": "NewAMP_P, ref SI 3", "from_the_text": "page 6: NH2 8 LKKWLKKWTPKASQFFGLM- NewAMP_E AH-5 NH E. coli ATCC 25922 4.67 2 3 […] P. aeruginosa ATCC NewAMP_P RaCa-2 KC 10148 128 3 P. aeruginosa ATCC NewAMP_P RaCa-4 FLTFPGMTFGKLLGK 10148 No inhibition 3 […] P. aeruginosa ATCC NewAMP_P RaCa-6 GKQ 10148 No inhibition 3 […] P. aeruginosa ATCC NewAMP_P RaCa-7 SVGN 10148 No inhibition 3 P. aeruginosa ATCC NewAMP_P RaCa-8 FPAIICKVSKNC 10148 No inhibition 3 P. aeruginosa ATCC NewAMP_P RaCa-9 FYFPVSRKFGGK 10148 No inhibition 3 […] P. aeruginosa ATCC NewAMP_P RaCa-10 LEII 1 ..."}, "[3]": {"system": "S. aureus ATCC 6538P", "settings": "NewAMP_S, ref SI 3", "from_the_text": "page 7: 29213 8 S. aureus ATCC NewAMP_S HJH-6 KKLLKKLLRLLKVLLR 29213 0.75 6 GWGAKRWGKRGWKWKRH NewAMP_S GW18 W-COONH S. aureus ATCC 6538 3.12 2 3 […] S. aureus ATCC NewAMP_S RaCa-2 KC 6538P 2-4 3 S. aureus ATCC NewAMP_S RaCa-4 FLTFPGMTFGKLLGK 6538P No inhibition 3 […] S. aureus ATCC NewAMP_S RaCa-6 GKQ 6538P No inhibition 3 […] S. aureus ATCC NewAMP_S RaCa-7 SVGN 6538P No inhibition 3 S. aureus ATCC NewAMP_S RaCa-8 FPAIICKVSKNC 6538P No inhibition 3 S. aureus ATCC NewAMP_S RaCa-9 FYFPVSRKFGGK 6538P No inhibition 3 […] S ..."}, "[4]": {"system": "E. coli ATCC 25922", "settings": "NewAMP_E, ref SI 3", "from_the_text": "page 5: Table S3 NewAMP database1-9 Sub-set Name Sequence Bacterial Strain MIC (µg/mL) NewAMP_E HJH-58 KKLLRLLKVLLR E. coli ATCC 25922 1.5 3 […] NewAMP_E RaCa-2 KC E. coli ATCC 25922 4-16 3 […] NewAMP_E RaCa-6 GKQ E. coli ATCC 25922 No inhibition NewAMP_E RaCa-83 FPAIICKVSKNC E. coli ATCC 25922 No inhibition 3 […] NewAMP_E RaCa-10 LEII E. coli ATCC 25922 No inhibition 5 […] NewAMP_E Hydr_2 KLL-NH E. coli ATCC 25922 512 2 5 […] NewAMP_E Hydr_3 KAG-NH E. coli ATCC 25922 512 2 NewAMP_E Hydr_45 FLPLIGRVFSGIL ... || page 6: NH2 8 LKKWLKKWTPKASQFFGLM- NewAMP_E AH-5 NH E. coli ATCC 25922 4.67 2 3 […] P. aeruginosa ATCC NewAMP_P RaCa-2 KC 10148 128 3 P. aeruginosa ATCC NewAMP_P RaCa-4 FLTFPGMTFGKLLGK 10148 No inhibition 3 […] P. aeruginosa ATCC NewAMP_P RaCa-6 GKQ 10148 No inhibition 3 […] P. aeruginosa ATCC NewAMP_P RaCa-7 SVGN 10148 No inhibition 3 P. aeruginosa ATCC NewAMP_P RaCa-8 FPAIICKVSKNC 10148 No inhibition 3 P. aeruginosa ATCC NewAMP_P RaCa-9 FYFPVSRKFGGK 10148 No inhibition 3 […] P. aeruginosa ATCC NewAMP_P RaCa-10 LEII 1 ..."}}}
{"sequence": "KKLLKKLLRLLKVLLR [HJH-6, newly published AMP of the NewAMP test set]", "values": [{"measurement": "% hemolysis at MHC", "setting": "[1]", "value": 90, "unit": "%"}]}
{"sequence": "SNRDFFKVNIFRLCG [RaCa-11, newly published AMP of the NewAMP test set]", "values": [{"measurement": "MIC", "setting": "[2]", "value": "No inhibition"}, {"measurement": "MIC", "setting": "[3]", "value": "No inhibition"}]}
{"sequence": "FILYGLIRFGRLLRK [Hm-AMP4, newly published AMP of the NewAMP test set]", "values": [{"measurement": "% hemolysis at MHC", "setting": "[1]", "value": 77, "unit": "%"}]}
{"sequence": "FLTFPGMTFGKLLGK [RaCa-4, newly published AMP of the NewAMP test set]", "values": [{"measurement": "MIC", "setting": "[2]", "value": "No inhibition"}, {"measurement": "MIC", "setting": "[3]", "value": "No inhibition"}]}
{"sequence": "FPAIICKVSKNC [RaCa-8, newly published AMP of the NewAMP test set]", "values": [{"measurement": "MIC", "setting": "[2]", "value": "No inhibition"}, {"measurement": "MIC", "setting": "[3]", "value": "No inhibition"}, {"measurement": "MIC", "setting": "[4]", "value": "No inhibition"}]}
{"sequence": "FYFPVSRKFGGK [RaCa-9, newly published AMP of the NewAMP test set]", "values": [{"measurement": "MIC", "setting": "[2]", "value": "No inhibition"}, {"measurement": "MIC", "setting": "[3]", "value": "No inhibition"}]}
